Experiment [1] relates to Rat PMNL (intracellular calcium). As to the kind of experiment: Measurement of Intracellular Calcium (Fura-2) in fMLP-stimulated rat PMNL. It is filed as cell-based. As to conditions: for suppression of the second wave of intracellular calcium changes: fMLP-stimulated PMNL, preincubation with compound, FIG. 1. How it is done: (§1) Rat PMNL were obtained from exudates resulting from peritoneal injection of 6 mL of 8% sodium caseinate. Eighteen hours after injection rats were killed by carbon dioxide inhalation and the peritoneal cavity lavaged with Hank's balanced salt solution (HBSS). After concentration of the PMNL by centrifugation, contaminating erythrocytes were removed by hypotonic lysis. The PMNL were then washed twice by centrifugation (400×g for 10 minutes) and resuspended in HBSS. Cell viability was greater than 90% by Trypan Blue exclusion and greater than 90% of the cells were PMNL by Wright-Giemsa stain.
Intracellular calcium levels were obtained using Fura-2 as fluorescent indicator (Grynkiewicz et al., 1985). Fura-2 was loaded into PMNL as the acetoxymethyl ester (Fura-2/AM) using the method of Korchak et al., (1988). Specifically, 1×10^8 PMNL/mL were incubated in HBSS with 10 μM Fura-2/AM for 10 minutes at 37° C. The cells suspension was then diluted ten fold with HBSS and further incubated for another 20 minutes. The cells were then centrifuged (400×g for 8 minutes at 25° C.) and the PMNL (1×10^7 cells/mL) resuspended in HBSS containing 1% bovine serum albumin. Cells were stored at room temperature and used within 3 hours.
Intracellular calcium level determinations were made using a dual wavelength spectrofluorometer (Photon Technology International, New Brunswick, N.J.). Two mL of PMNL suspension (1×10^7 cells/mL) were stirred magnetically at 37° C. Cells were preincubated with the compounds for 15 minutes at 37° C. prior to activation. Where compounds were dissolved in DMSO and added directly, the DMSO never exceeded 0.3% in the final cell suspension. Total change in volume with addition of compounds or vehicle and stimuli never exceeded 3%. Intracellular calcium concentrations were calibrated by setting a maximum calcium level in the cells with the addition of 7 uM ionomycin to PMNL in HBSS containing 1% BSA. This was followed by treatment with 20 mM EGTA for 1 hour to obtain a minimum calcium level. […]
(Calcium flux is commonly read through the fluorescence of an indicator in the cells.)

A further experiment relates to Rat PMNL. Description: Myeloperoxidase (MPO) Release from rat PMNL. It is filed as cell-based. The note with it: for inhibition at 1 µM / inhibition at 3 µM / inhibition at 10 µM / inhibition at 30 µM / inhibition at 100 µM / inhibition at 300 µM: Rattus norvegicus, PMNL. How it is done: as §1
MPO release was determined using the MPO catalyzed oxidation of o-dianisidine. The experiments were carried out in 96-well microtiter plates (Webster and Henson, 1978). In each well, 50 microliter (μ1) aliquots of a PMNL suspension (2×10^7 cell/mL in HBSS) were incubated with 50 μof HBSS containing vehicle (0.3% DMSO) or inhibitor for 30 minutes at 37° C. The final DMSO concentration never exceeded 0.3% and was constant throughout each experiment. To activate the PMNL, 50 μl of one of the following were added for 30 minutes at 37° C.: N-formyl-Met-Leu-Phe (fMLP; 0.1 μM); phorbol myristate acetate (PMA, 200 ng/mL); or rat serum opsonized zymosan (OZ; 2.6 mg/mL, prepared by the method of Ward et al., 1983). The stimuli were added in 50 μl HBSS which also contained the compounds or vehicle, as appropriate, to avoid changing the inhibitor concentration. Cell activation was terminated by centrifugation of the plates at 600×g for 5 minutes at 22° C. Aliquots (100 μl) of supernatant were removed from each well and transferred to a 96-well flatbottomed microtiter plate for the MPO assay. To each aliquot of supernatant was added 100 μl of a freshly prepared solution containing 50 μl of 0.2M sodium phosphate buffer (pH 6.2), 25 μl of 3.9 mM O-dianisidine and 25 μl of 0.015M hydrogen peroxide. Blanks were obtained using the same solution without hydrogen peroxide. The plates were mixed and then incubated at room temperature in the dark for about 15 minutes. Absorbances of the samples were measured at 450 nm.
Rat PMNL were isolated in HBSS containing Ca^+2. As summarized in the figure below, fMLP stimulation of rat PMNL in the presence of cytochalasin B or with opsonized zymosan or with ionomycin results in the release of myeloperoxidase (fMLP/MPO, OZ/MPO, and ION/MPO; columns 2, 4, and 6 respectively).

Setting [2] is: fMLP + cytochalasin B, read-out: fMLP/MPO inhibition.
Where [3] appears, read: ionomycin, read-out: ION/MPO inhibition.
[4] abbreviates: opsonized zymosan, read-out: OZ/MPO inhibition.
The mark [5] stands for this setting: fMLP + cytochalasin B, opsonized zymosan, ionomycin.

Molecules are shown by their SMILES. Read-outs that look alike come from different tables or passages of the source.

Consider `O=C(C=Cc1ccncc1)c1ccccc1` [MDL 29,355, 1-phenyl-3-(4-pyridinyl)-2-propene-1-one], for which the “suppression of the second wave of intracellular calcium changes” value in experiment [1] is given as “selective concentration-dependent suppression of the second wave of intracellular calcium changes”. In the experiment on Rat PMNL (setting [2]), the inhibition at 1 µM was 0.1%, the inhibition at 3 µM came to 5%, the inhibition at 10 µM stood at 16.5% and the inhibition at 30 µM came out at 53.3%. Moreover, in the experiment on Rat PMNL (setting [2]), the inhibition at 100 µM is 101% and the inhibition at 300 µM is 104%. Moreover, in the experiment with Rat PMNL (setting [3]), the inhibition at 1 µM is -4.5%, the inhibition at 3 µM was -1.7%, the inhibition at 10 µM is 14.8% and the inhibition at 30 µM worked out at 24.4%. Besides, in the experiment on Rat PMNL (setting [3]), the inhibition at 100 µM came to 89.1% and the inhibition at 300 µM is 99.6%. In addition, in the experiment on Rat PMNL (setting [4]), the inhibition at 1 µM is -1.7%, the inhibition at 3 µM stood at 3.4%, the inhibition at 10 µM came to 3.6% and the inhibition at 30 µM was 3.2%. In addition, in the experiment on Rat PMNL (setting [4]), the inhibition at 100 µM is 7.1% and the inhibition at 300 µM came to 42.4%. Further, the “inhibition of myeloperoxidase release” value in the experiment with Rat PMNL (setting [5]) is “dose dependent inhibition of myeloperoxidase release”.

For the compound `CN(C)c1ccc(C(=O)C=Cc2ccncc2)cc1` [MDL 101,240, 1-(4-dimethylaminophenyl)-3-(4-pyridinyl)-2-propene-1-one], the “relative inhibition of the second phase (calcium uptake)” value in experiment [1] (MDL 101,240 vs MDL 29,355, fMLP stimulus) was “stronger inhibition for MDL 101,240 than for MDL 29,355”. The “suppression of the second wave of intracellular calcium changes” value in experiment [1] was “selective concentration-dependent suppression of the second wave of intracellular calcium changes”. Also, in the experiment with Rat PMNL (setting [2]), the inhibition at 1 µM was found to be 13.1%, the inhibition at 3 µM stood at 11.7%, the inhibition at 10 µM was determined as 31.2% and the inhibition at 30 µM is 67.3%. Besides, the inhibition at 100 µM with Rat PMNL (setting [2]) came to 112%. Besides, in the experiment with Rat PMNL (setting [3]), the inhibition at 1 µM was -8%, the inhibition at 3 µM is -5%, the inhibition at 10 µM is -2% and the inhibition at 30 µM turned out to be 12%. The inhibition at 100 µM with Rat PMNL (setting [3]) turned out to be 35.6%. Moreover, in the experiment on Rat PMNL (setting [4]), the inhibition at 1 µM was 2.5%, the inhibition at 3 µM is 7.3%, the inhibition at 10 µM was 28.1% and the inhibition at 30 µM was 82.5%. For the same compound, the inhibition at 100 µM in the experiment on Rat PMNL (setting [4]) is 142%. In addition, in the experiment with Rat PMNL (setting [5]), the “inhibition of myeloperoxidase release” value was “dose dependent inhibition of myeloperoxidase release”.

Source of the values: US5500429A, “Calcium uptake inhibitors” (Merrell Pharmaceuticals Inc., priority 1993, dated 1996).
